In patent EP1186305A1 (Schering Aktiengesellschaft, priority 2000, dated 2002):

Tests used:
Aqueous solubility = assay type: physicochemical
erythrocyte morphology = test: Influence on erythrocyte morphology in rat blood (damage index); assay type: cell-based; conditions: for Erythrocyte morphology Damage index 2 h: six parts blood to one part test substance, 2 h incubation
Experimental: Six parts by volume was mixed with one part by volume of each test substance. The mixtures were examined with and optical microscope immediately, 1 hour and 2 hours after incubation in terms of a damage index of blood cells.

male Sprague-Dawley mice = test: Acute tolerance, approximate LD50 after single intravenous injection
From the text: (§2) The behavior of the animals and the lethality was monitored for 7 days post injection.

[1] = Viscosity of contrast media formulations (capillary viscosimeter); assay type: physicochemical; conditions: formulations 0.788 (monomer) or 0.394 (dimer) mol/L
Experimental: (§1) For this purpose contrast media formulation with a molar concentration of […] for monomeric compounds and of […] for dimeric compounds, equivalent to a iodine concentration of 300 mgI/mL or 189 mgBr/mL were prepared at neutral pH. After heat sterilization under standard conditions for 20 min at 120°C changes in pH and free bromine and iodine was measured. The osmolality was measured at 37°C using a Knauer vapor pressure osmometer. Viscosity of contrast media formulations was determined using a Schott capillary viscosimeter which was standardized with water.

[2] = Osmolality of contrast media formulations (vapor pressure osmometer); assay type: physicochemical
Experimental: as §1

in vivo = conditions: male, mouse, iv
From the text: as §2

[3] = Phantom studies with conventional mammography (X-ray absorption of contrast media in agar discs); conditions: 10 mm agar discs in 5 cm water phantom, film mammography
Experimental: The agar pieces were prepared in cell-culture well-plates having a diameter of 24 mm and a final height of 10 mm. After formation of solid agar the agar discs were placed in a water phantom containing 5 cm height of water. Additionally a control agar disc prepared with physiological saline instead of CM volume was added. The whole phantom was imaged with a commercial available mammograph at various energies of 30 kV, 25 and 20 kV and 140 mAs. After exposure the mammographic films were developed according to standard quality guidelines. Later the films were digitized and signal intensities of the agar discs and surrounding water background were measured with a imaging analyzing software.

[4] = Pharmacokinetic profile after intravenous administration of 3H-labelled compound; assay type: in vivo, male Sprague-Dawley rats; conditions: rats
Experimental: The pharmacokinetic profile of example 4 was examined after intravenous administration of 3H-labelled example 4 to male Sprague-Dawley rats. For this purpose example 4 was labeled with tritium of a chemical concentration of 300 mg / mL and a radioactive concentration of 2.75 MBq/mL. After intravenous injection in the right jugular vein via a catheter at a dose of 600 mg EXAMPLE 4/kg blood samples of 400 µl were collected in plastic tubes at 0.083, 0.25, 0.5, 1, 2, 4, 6, 8 and 24 hours after administration. Plasma samples were obtained after blood sample centrifugation at 250 g for 10 min. After injection, the rats were transferred in metabolic cages allowing the collection of urine and faeces at different intervals. Aliquots of 100 µl of samples with blood or urine were added to 10 ml of scintillation cocktail and the radioactivity was measured by means of a Tricor-2500 TR automatic scintillation spectrometer. Faeces samples were freeze-dried for two days. They were milled and aliquots of 50 or 100 mg were taken, moistened with 1 mL water and digested with Soluene-350® and 1 mL of isopropyl alcohol at 50 °C for 24 hours. Digested faeces samples were bleached and radioactivity was measured as mentioned above. Plasma levels of example 4 and mean cumulative urinary and faecal excretion data were fitted to a two-compartment model. Curve fit and evaluation of kinetic parameters was performed on the TOP-Fit v 2.0β program.

[5] = i.v. 600 mg/kg, two-compartment model

SMILES	Aqueous solubility (Aqueous solubility) [mgBr/mL]	influence on erythrocyte morphology compared to iodinated reference substances (erythrocyte morphology)	Erythrocyte morphology Damage index 2 h (erythrocyte morphology)	increase of the tolerability with respect to the iodinated and brominated reference compounds (male Sprague-Dawley mice)	Viscosity (37°C) [1] [mPa·s]	Osmolality b) dimer, 0.394 mol/L, 37° C [2] [mOsm/kg water]	Osmolality a) monomer, 0.788 mol/L, 37°C [2] [mOsm/kg water]	other results
CN(C(=O)CC(=O)N(C)c1c(Br)c(C(=O)NC(CO)C(O)CO)c(Br)c(C(=O)NC(CO)C(O)CO)c1Br)c1c(Br)c(C(=O)NC(CO)C(O)CO)c(Br)c(C(=O)NC(CO)C(O)CO)c1Br (centres unmarked) [Example 26, N,N'-bis-[2,4,6-tribromo-3,5-bis-[N-(1-hydroxymethyl-2,3-dihydroxypropyl)carbamoyl]phenyl]-N,N'-dimethylmalonamide]	400	substantially less influence on erythrocyte morphology than the iodinated reference substances	0.51	13 - 23%	6.3	370		
NC(=O)c1c(Br)c(C(=O)NCC(O)CO)c(Br)c(N(CC(O)CO)C(=O)CC(=O)N(CC(O)CO)c2c(Br)c(C(N)=O)c(Br)c(C(=O)NCC(O)CO)c2Br)c1Br (centres unmarked) [Example 25, N,N'-bis-[2,4,6-tribromo-5-carbamoyl-3-[N-(2,3-dihydroxypropyl)carbamoyl]phenyl]-N,N'-bis-(2,3-dihydroxypropyl)-malonamide]	400	substantially less influence on erythrocyte morphology than the iodinated reference substances	0.45	13 - 23%	5.5	320		
CC(=O)N(CC(O)CO)c1c(I)c(C(=O)NCC(O)CO)c(I)c(C(=O)NCC(O)CO)c1I (centres unmarked) [Iohexol, 5-[N-(2,3-dihydroxypropyl)acetylamino]-2,4,6-triiodo-N,N'-bis-(2,3-dihydroxypropyl)isoph-thalamide, reference compound]			1.31					
CC(=O)N(CC(O)CO)c1c(Br)c(C(=O)NCC(O)CO)c(Br)c(C(=O)NCC(O)CO)c1Br (centres unmarked) [reference compound]	> 300				4.6		908	LD50 at 7 days (in vivo): ~59000 µmol/kg
NC(=O)c1c(Br)c(C(=O)NC(CO)C(O)CO)c(Br)c(N(CCO)C(=O)CO)c1Br (centres unmarked) [Example 14, 2,4,6-tribromo-5-[N-(2-hydroxyethyl)hydroxyacetylamino]-N-(1-hydroxymethyl-2,3-dihydroxypropyl)isophthalamide]	>400	substantially less influence on erythrocyte morphology than the iodinated reference substances	0.88	13 - 23%	3.4		500	
CN(CC(O)CO)C(=O)c1c(Br)c(NC(=O)CO)c(Br)c(C(=O)NCC(O)CO)c1Br (centres unmarked) [Example 4, 2,4,6-tribromo-5-hydroxyacetylamino-N,N'-bis-(2,3-dihydroxypropyl)-N-methylisophthalamide]	>400	substantially less influence on erythrocyte morphology than the iodinated reference substances	0.82	13 - 23%	3.5		818	detectable down to concentrations [3]: 1.31 mmol/L; detectable down to concentrations, moles equivalent to mg I/mL of Iohexol [3]: 0.5 mg I/mL; in faeces measured ([4]; 24 h p.i.): 5.1 % I.D.; in the urine detected ([4]; 24 h p.i.): 63.7 % I.D.; metabolisation (bile fluid, HPLC-analysis) ([4]; bile collected via catheter in the bile duct): no metabolisation; cumulative faecal excretion ([4]; i.v. 600 mg/kg, at 24 h): 5.39 % of injected dose; cumulative urinary excretion ([4]; i.v. 600 mg/kg, at 24 h p.i.): 62.8 % of injected dose; distribution volume Vc [4, 5]: 0.26 L/kg; t½ α [4, 5]: 11.4 min; t½ β [4, 5]: 31.2 min
CN(C(=O)CC(=O)N(C)c1c(I)c(C(=O)NC(CO)C(O)CO)c(I)c(C(=O)NC(CO)C(O)CO)c1I)c1c(I)c(C(=O)NC(CO)C(O)CO)c(I)c(C(=O)NC(CO)C(O)CO)c1I (centres unmarked) [Iotrolan, N,N'-bis-[2,4,6-triiodo-3,5-bis-[N-(1-hydroxymethyl-2,3-dihydroxypropyl)carbamoyl]phenyl]-N,N'-dimethylmalonamide, reference compound]	>400		0.69		8.5	320		LD50 at 7 days (in vivo; Sprague-Dawley): 63000 µmol/kg
